Tests used:
[1] = molecular target: T1, 2C-methyl-D-erythritol 2,4-cyclodiphosphate synthase (Escherichia coli, UniProt P62617); format: biochemical; conditions: E. coli enzyme, compound as substrate
T1 construct: His6 (from vector pQE30) (N); made in house; host or cells: E. coli XL1-Blue carrying pQEispF
Method: Assay mixtures contain 50 mM potassium phosphate, pH 7.0, 2 mM DTT, 2 mM MgCl2, 1 mM 4-diphosphocytidyl-2C-methyl-D-erythritol 2-phosphate and protein in a total volume of 100 μl. The mixtures are incubated at 37° C. for 20 min. The reactions are terminated by adding EDTA at a final concentration of 4 mM. The samples are centrifuged and the supernatant is analyzed by HPLC using a column of Multospher 120 RP 18-AQ-5 (4.6×250 mm, CS-Chromatographic Service Gmbh) that has been equilibrated and run with Gradient No. 3 at a flow rate 1 ml min^−1 (see below). The effluent is monitored photometrically (270 nm).
One unit of 2C-methyl-D-erythritol 2,4-cyclodiphosphate synthase activity is defined as the amount of protein which produced 1 μmol min^−1 of CMP.
Column: Multospher 120 RP 18-5 AQ, 250×4.6 mm, particle size 5 μm (CS: Chromatographic Service GmbH, Langerwehe, Germany)

[2] = molecular target: T1, 2C-methyl-D-erythritol 2,4-cyclodiphosphate synthase; assay: Crystal soaking and 3D structure determination of ligand complexes; format: binding, E. coli; conditions: for affinity for the protein (in words): from crystals/structures subs, sub2 and cyt
Method: The following substrate, substrate analoge and product complexes were determined in order to determine binding of these molecules to the synthase:
subop: a crystal soaked with 10 mM 4-diphosphocytidyl-2C-methyl-D-erythritol. The zinc atom the water or hydroxyl-group at the zinc is replaced by an oxygen of the beta-phosphate of the diphosphocytidyl-moiety.
subs: a crystal soaked with 10 mM 4-diphosphocytidyl-2C-methyl-D-erythritol 2-phosphate and 10 mM EDTA, that contains no zinc.
sub2: a crystal soaked with 10 mM 4-diphosphocytidyl-2C-methyl-D-erythritol 2-phosphate, that containes zinc and the products CMP and 2C-methyl-D-erythritol 2,4-cyclodiphosphate.
mgcdp2: a crystal soaked with 2 mM CDP and 5 mM MgCl2
cyt: a crystal soaked with 10 mM cytidine
These structures were determined using the nat2 structure as starting model. Initially a rigid body refinement was carried out followed by positional refinement. Then the substrate, substrate analoge or product molecules were build into the electron density of difference electron density maps, again followed by refinement of atom positions and B-factors.
Crystals containing the synthase and zinc were incubated for one hour with about 5 mM of a ligand in mother liquor containing 2M ammonium formate, 0.1M HEPES/NaOH at pH 7.0 and 20% D-(−)-2,3-butanediole (purchased from FLUKA) as a cryo-protectant. Crystals were mounted in a nylon-loop and flash frozen in a stream of nitrogen at 100Kelvin with an Oxford cryo stream. […] Diffraction data were measured at that temperature without any indication of radiation damage.
In order to obtain a crystal structure of 2C-methyl-D-erythritol 2,4-cyclodiphosphate synthase in complex with CDP, the synthase was crystallized according to example 8. A crystal of suitable size was then soaked in crystallization buffer (see example 8) further containing 5 mM CDP and 5 mM MgCl2.
The starting model for the determination of the structure of the complex was the structure of the synthase without a substrate analoge. […]

T1 sequence (P62617 whole entry): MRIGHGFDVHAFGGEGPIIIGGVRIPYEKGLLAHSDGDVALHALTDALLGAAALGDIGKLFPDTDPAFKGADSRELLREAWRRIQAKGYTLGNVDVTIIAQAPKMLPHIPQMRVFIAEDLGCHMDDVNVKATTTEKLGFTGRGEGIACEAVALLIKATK

## C[C@@](CO)(OP(=O)(O)O)[C@H](O)COP(=O)(O)OP(=O)(O)OC[C@H]1O[C@@H](n2ccc(N)nc2=O)[C@H](O)[C@@H]1O [4-diphosphocytidyl-2C-methyl-D-erythritol 2-phosphate]
[1]
  Km: 37 µM
  vmax: 76 µmol/mg/min

## Nc1ccn([C@@H]2O[C@H](COP(=O)(O)OP(=O)(O)O)[C@@H](O)[C@H]2O)c(=O)n1 [CDP, cytidine diphosphate]
[2]; inferred from binding to a portion of the active site in the synthase-CDP complex
  type of inhibition of the synthase (in words): competitive inhibitor

## Nc1ccn([C@@H]2O[C@H](COP(=O)(O)O)[C@@H](O)[C@H]2O)c(=O)n1 [CMP, cytidine monophosphate]
[2]
  affinity for the protein (in words): considerable affinity

## Nc1ccn([C@@H]2O[C@H](CO)[C@@H](O)[C@H]2O)c(=O)n1 [cytidine]
[2]
  affinity for the protein (in words): considerable affinity
